{"source": "patent US10017556B2", "about": "“Insulin receptor partial agonists” (MERCK SHARP & DOHME CORP., priority 2014, dated 2018)", "tested_on": "lean C57BL/6NTac mice", "experiment": "Intraperitoneal Insulin Tolerance Test (IP-ITT)", "assay_type": "in vivo", "conditions": "intraperitoneal injection, two doses per compound (Table 16), blood glucose 30 to 360 min after dose", "method": "Groups of N=6-8 animals per group were randomized by weight (average about 30 grams). Two days prior to study, the mice were conditioned to dosing with an intraperitoneal injection of 0.9% Sodium Chloride solution at 5 ml/kg dosing volume. On the morning of the study, food was removed two or four hours prior to the study. Blood glucose concentrations were determined at T=0 min (baseline) using a Glucometer. […] Blood glucose levels were determined from tail bleeds taken between 30 to 360 minutes after dose."}
{"substance": "B29,B29′-suberoyl-(insulin)2 [Compound B, reference compound]", "values": [{"measurement": "glucose profile at low versus high dose in IP-ITT", "value": "increasing the dosage of compounds A and B caused an increased glucose lowering potency"}]}
